Data published in publication PMC10762078, “Role of UPF1-LIN28A interaction during early differentiation of pluripotent stem cells” (Nature Communications, 2024).

System: hPSCs
Assay: RT-qPCR of pluripotency and germ-layer markers during differentiation with CPP-peptides (Supplementary Fig. 7b-e)
Assay type: cell-based, human
Settings: for CXCR4 (RT-qPCR) / FOXA1 (RT-qPCR) / GATA4 (RT-qPCR) / SOX17 (RT-qPCR): Fig. s7e; for BMP2 mRNA level (RT-qPCR) / BMP4 mRNA level (RT-qPCR) / CDH2 mRNA level (RT-qPCR) / CXCR4 mRNA level (RT-qPCR) / SNAI1 mRNA level (RT-qPCR) / TBXT mRNA level (RT-qPCR): Fig. s7d
Method: For CPP-conjugated peptide delivery, HeLa, 293T, and PA-1 cells were incubated with CPP-conjugated peptides or CPP-FITC at 2 μM in DMEM with 10% FBS for 12 h a day before cell harvest. hPSCs were treated with CPP-conjugated peptides at 10 μM in mTeSR Plus Medium, and the peptide-containing medium was changed every day over 10 days. The ROCK inhibitor (Tocris Bioscience, Y-27632) treated-hPSCs were dissociated into single cells using Accutase (Merck, SCR005) and differentiated into ectoderm, mesoderm, and endoderm using the STEMdiff Trilineage Differentiation Kit ([…] Technologies, 05230) following the manufacturer’s protocol. Differentiated cells treated with CPP-conjugated peptides were analysed at 0, 3, and 5 days for ectoderm and endoderm, and at 0, 3, and 4 days for mesoderm. […]
cDNA was synthesised using RevertAid Reverse Transcriptase (Thermo Fisher Scientific, EP0441) with synthesised random hexamer (Macrogen) for total RNA or stem-loop primers for miRNA. For RT-qPCR reactions, the SensiFAST SYBR No-ROX kit (Meridian Bioscience) was used according to the manufacturer’s protocol. All data analysis and visualisation were conducted using R 3.6.1 [www.r-project.org] or GraphPad Prism 10. RT primers for miRNA and RT-qPCR primer sequences are provided in Supplementary Data 6. […]
FPKM of each gene was presented f r om RNA-seq analysis. b–e hPSCs wer e treated with the indicated peptide during each germ la ye r differentiation. […]
An unpaired Student’s t-test was used for a–e. Data are presented as mean values ± SEM. All statistical test us ed wer e two-s ided. T he m inim um number of independent biological replicate experim ents was a–f n = 3. T he experiments wer e conducted three tim es, each iteration producing consistent results.

N-MPELQKLQQLKDE-C [P2, peptide derived from the UPF1 (419–700) domain]
CXCR4 (RT-qPCR) (Day 0, replicate 1): 1.088 | CXCR4 (RT-qPCR) (Day 0, replicate 2): 0.7848 | CXCR4 (RT-qPCR) (Day 0, replicate 3): 1.127 | CXCR4 (RT-qPCR) (Day 3, replicate 1): 897.043 | CXCR4 (RT-qPCR) (Day 3, replicate 2): 593.555 | CXCR4 (RT-qPCR) (Day 3, replicate 3): 261.141 | CXCR4 (RT-qPCR) (Day 5, replicate 1): 674.407 | CXCR4 (RT-qPCR) (Day 5, replicate 2): 690.257 | CXCR4 (RT-qPCR) (Day 5, replicate 3): 509.637 | FOXA1 (RT-qPCR) (Day 0, replicate 1): 1.247 | FOXA1 (RT-qPCR) (Day 0, replicate 2): 1.413 | FOXA1 (RT-qPCR) (Day 0, replicate 3): 0.3396 | FOXA1 (RT-qPCR) (Day 3, replicate 1): 120.605 | FOXA1 (RT-qPCR) (Day 3, replicate 2): 127.453 | FOXA1 (RT-qPCR) (Day 3, replicate 3): 128.785 | FOXA1 (RT-qPCR) (Day 5, replicate 1): 296.789 | FOXA1 (RT-qPCR) (Day 5, replicate 2): 436.764 | FOXA1 (RT-qPCR) (Day 5, replicate 3): 611.507 | BMP2 mRNA level (RT-qPCR) (Day 0, replicate 1): 0.8054 | BMP4 mRNA level (RT-qPCR) (Day 0, replicate 1): 1.545 | CDH2 mRNA level (RT-qPCR) (Day 0, replicate 1): 1.016 | CXCR4 mRNA level (RT-qPCR) (Day 0, replicate 1): 0.9995 | SNAI1 mRNA level (RT-qPCR) (Day 0, replicate 1): 1.4406 | TBXT mRNA level (RT-qPCR) (Day 0, replicate 1): 1.3 | BMP2 mRNA level (RT-qPCR) (Day 0, replicate 2): 1.199 | BMP4 mRNA level (RT-qPCR) (Day 0, replicate 2): 0.6508 | CDH2 mRNA level (RT-qPCR) (Day 0, replicate 2): 0.7569 | CXCR4 mRNA level (RT-qPCR) (Day 0, replicate 2): 1.121 | SNAI1 mRNA level (RT-qPCR) (Day 0, replicate 2): 0.9418 | TBXT mRNA level (RT-qPCR) (Day 0, replicate 2): 0.8652 | BMP2 mRNA level (RT-qPCR) (Day 0, replicate 3): 0.9954 | BMP4 mRNA level (RT-qPCR) (Day 0, replicate 3): 0.8046 | CDH2 mRNA level (RT-qPCR) (Day 0, replicate 3): 1.227 | CXCR4 mRNA level (RT-qPCR) (Day 0, replicate 3): 0.8798 | SNAI1 mRNA level (RT-qPCR) (Day 0, replicate 3): 0.6176 | TBXT mRNA level (RT-qPCR) (Day 0, replicate 3): 0.8351 | BMP2 mRNA level (RT-qPCR) (Day 3, replicate 1): 1.083 | BMP4 mRNA level (RT-qPCR) (Day 3, replicate 1): 30.6184 | CDH2 mRNA level (RT-qPCR) (Day 3, replicate 1): 23.3268 | CXCR4 mRNA level (RT-qPCR) (Day 3, replicate 1): 950.283 | SNAI1 mRNA level (RT-qPCR) (Day 3, replicate 1): 22.3091 | TBXT mRNA level (RT-qPCR) (Day 3, replicate 1): 6339.58 | BMP2 mRNA level (RT-qPCR) (Day 3, replicate 2): 0.8465 | BMP4 mRNA level (RT-qPCR) (Day 3, replicate 2): 25.9141 | CDH2 mRNA level (RT-qPCR) (Day 3, replicate 2): 19.1392 | CXCR4 mRNA level (RT-qPCR) (Day 3, replicate 2): 710.257 | SNAI1 mRNA level (RT-qPCR) (Day 3, replicate 2): 18.7714 | TBXT mRNA level (RT-qPCR) (Day 3, replicate 2): 5442.29 | BMP2 mRNA level (RT-qPCR) (Day 3, replicate 3): 1.108 | BMP4 mRNA level (RT-qPCR) (Day 3, replicate 3): 28.7876 | CDH2 mRNA level (RT-qPCR) (Day 3, replicate 3): 24.2422 | CXCR4 mRNA level (RT-qPCR) (Day 3, replicate 3): 582.163 | SNAI1 mRNA level (RT-qPCR) (Day 3, replicate 3): 15.4609 | TBXT mRNA level (RT-qPCR) (Day 3, replicate 3): 8084.66 | BMP2 mRNA level (RT-qPCR) (Day 4, replicate 1): 0.2114 | BMP4 mRNA level (RT-qPCR) (Day 4, replicate 1): 7.214 | CDH2 mRNA level (RT-qPCR) (Day 4, replicate 1): 11.5611 | CXCR4 mRNA level (RT-qPCR) (Day 4, replicate 1): 685.489 | SNAI1 mRNA level (RT-qPCR) (Day 4, replicate 1): 15.012 | TBXT mRNA level (RT-qPCR) (Day 4, replicate 1): 2940.28 | BMP2 mRNA level (RT-qPCR) (Day 4, replicate 2): 0.2729 | BMP4 mRNA level (RT-qPCR) (Day 4, replicate 2): 9.74 | CDH2 mRNA level (RT-qPCR) (Day 4, replicate 2): 14.1794 | CXCR4 mRNA level (RT-qPCR) (Day 4, replicate 2): 388.959 | SNAI1 mRNA level (RT-qPCR) (Day 4, replicate 2): 19.2435 | TBXT mRNA level (RT-qPCR) (Day 4, replicate 2): 3606.85 | BMP2 mRNA level (RT-qPCR) (Day 4, replicate 3): 0.3615 | BMP4 mRNA level (RT-qPCR) (Day 4, replicate 3): 11.782 | CDH2 mRNA level (RT-qPCR) (Day 4, replicate 3): 17.5421 | CXCR4 mRNA level (RT-qPCR) (Day 4, replicate 3): 349.009 | SNAI1 mRNA level (RT-qPCR) (Day 4, replicate 3): 14.5806 | TBXT mRNA level (RT-qPCR) (Day 4, replicate 3): 4470.07 | GATA4 (RT-qPCR) (Day 0, replicate 1): 0.7242 | GATA4 (RT-qPCR) (Day 0, replicate 2): 1.3517 | GATA4 (RT-qPCR) (Day 0, replicate 3): 0.9241 | GATA4 (RT-qPCR) (Day 3, replicate 1): 32.2036 | GATA4 (RT-qPCR) (Day 3, replicate 2): 43.7097 | GATA4 (RT-qPCR) (Day 3, replicate 3): 38.0896 | GATA4 (RT-qPCR) (Day 5, replicate 1): 51.4498 | GATA4 (RT-qPCR) (Day 5, replicate 2): 54.8514 | GATA4 (RT-qPCR) (Day 5, replicate 3): 109.794 | SOX17 (RT-qPCR) (Day 0, replicate 1): 1.264 | SOX17 (RT-qPCR) (Day 0, replicate 2): 0.8709 | SOX17 (RT-qPCR) (Day 0, replicate 3): 0.8647 | SOX17 (RT-qPCR) (Day 3, replicate 1): 1792.04 | SOX17 (RT-qPCR) (Day 3, replicate 2): 907.999 | SOX17 (RT-qPCR) (Day 3, replicate 3): 1484.43 | SOX17 (RT-qPCR) (Day 5, replicate 1): 1721.02 | SOX17 (RT-qPCR) (Day 5, replicate 2): 1190.77 | SOX17 (RT-qPCR) (Day 5, replicate 3): 1778.6
